Values after ≈ are worked out from the molar mass of the structure shown.
Experiments:
[1] = target: Estrogen Receptor (ERα) in MCF-7 cells (Homo sapiens (Human), UniProt P03372); experiment: MCF-7 ER down-regulation assay (immuno-fluorescence); assay type: cell-based; details: for % downregulation (in brackets): maximum downregulation
[2] = Log D (shake flask, 1-octanol/aqueous buffer); assay type: physicochemical; details: for logD: 1-octanol/aqueous buffer, pH 7.4, pH 7.4
[3] = Human plasma protein binding (equilibrium dialysis); assay type: in vitro ADME
hERG potassium channel = hERG potassium channel (Homo sapiens (Human), UniProt Q12809)
[4] = target: recombinant human Estrogen Receptor alpha ligand binding domain (ER alpha-LBD (GST)) (Homo sapiens (Human), UniProt P03372); experiment: ERα binding assay (LanthaScreen TR-FRET competition)
Description: The ability of compounds to bind to isolated Estrogen Receptor Alpha Ligand binding domain (ER alpha—LBD (GST)) was assessed in competition assays using a LanthaScreen Time-Resolved Fluorescence Resonance Energy Transfer (TR-FRET) detection end-point. For the LanthaScreen TR-FRET endpoint, a suitable fluorophore (Fluormone ES2, ThermoFisher, Product code P2645) and recombinant human Estrogen Receptor alpha ligand binding domain, residues 307-554 (expressed and purified in-house) were used to measure compound binding. The assay principle is that ER alpha-LBD (GST) is added to a fluorescent ligand to form a receptor/fluorophore complex. A terbium-labelled anti-GST antibody (Product code PV3551) is used to indirectly label the receptor by binding to its GST tag, and competitive binding is detected by a test compound's ability to displace the fluorescent ligand, resulting in a loss of TR-FRET signal between the Tb-anti-GST antibody and the tracer. The assay was performed as follows with all reagent additions carried out using the Beckman Coulter BioRAPTR FRD microfluidic workstation: • 1. Acoustic dispense 120 nL of the test compound into a black low volume 384 well assay plates. • 2. Prepare 1× ER alpha-LBD/Tb-antiGST Ab in ES2 screening buffer and incubate for 15 minutes. • 3. […] Cover the assay plate to protect the reagents from light and evaporation, and incubate at room temperature for 4 hours. • 5. Excite at 337 nm and measure the fluorescent emission signal of each well at 490 nm and 520 nm using the BMG PheraSTAR.
TR-FRET dose response data obtained with each compound was exported into a suitable software package (such as Origin or Genedata) to perform curve fitting analysis. Competitive ER alpha binding was expressed as an IC50 value.

[5] = Thermodynamic solubility (shake-flask); assay type: physicochemical; details: phosphate buffer pH 7.4, 24 hours
[6] = aqueous phosphate buffer, 25 °C, pH 7.4, aqueous buffer, thermodynamic from solid

Sequence of hERG potassium channel (Q12809 whole entry, the tested form may be a part): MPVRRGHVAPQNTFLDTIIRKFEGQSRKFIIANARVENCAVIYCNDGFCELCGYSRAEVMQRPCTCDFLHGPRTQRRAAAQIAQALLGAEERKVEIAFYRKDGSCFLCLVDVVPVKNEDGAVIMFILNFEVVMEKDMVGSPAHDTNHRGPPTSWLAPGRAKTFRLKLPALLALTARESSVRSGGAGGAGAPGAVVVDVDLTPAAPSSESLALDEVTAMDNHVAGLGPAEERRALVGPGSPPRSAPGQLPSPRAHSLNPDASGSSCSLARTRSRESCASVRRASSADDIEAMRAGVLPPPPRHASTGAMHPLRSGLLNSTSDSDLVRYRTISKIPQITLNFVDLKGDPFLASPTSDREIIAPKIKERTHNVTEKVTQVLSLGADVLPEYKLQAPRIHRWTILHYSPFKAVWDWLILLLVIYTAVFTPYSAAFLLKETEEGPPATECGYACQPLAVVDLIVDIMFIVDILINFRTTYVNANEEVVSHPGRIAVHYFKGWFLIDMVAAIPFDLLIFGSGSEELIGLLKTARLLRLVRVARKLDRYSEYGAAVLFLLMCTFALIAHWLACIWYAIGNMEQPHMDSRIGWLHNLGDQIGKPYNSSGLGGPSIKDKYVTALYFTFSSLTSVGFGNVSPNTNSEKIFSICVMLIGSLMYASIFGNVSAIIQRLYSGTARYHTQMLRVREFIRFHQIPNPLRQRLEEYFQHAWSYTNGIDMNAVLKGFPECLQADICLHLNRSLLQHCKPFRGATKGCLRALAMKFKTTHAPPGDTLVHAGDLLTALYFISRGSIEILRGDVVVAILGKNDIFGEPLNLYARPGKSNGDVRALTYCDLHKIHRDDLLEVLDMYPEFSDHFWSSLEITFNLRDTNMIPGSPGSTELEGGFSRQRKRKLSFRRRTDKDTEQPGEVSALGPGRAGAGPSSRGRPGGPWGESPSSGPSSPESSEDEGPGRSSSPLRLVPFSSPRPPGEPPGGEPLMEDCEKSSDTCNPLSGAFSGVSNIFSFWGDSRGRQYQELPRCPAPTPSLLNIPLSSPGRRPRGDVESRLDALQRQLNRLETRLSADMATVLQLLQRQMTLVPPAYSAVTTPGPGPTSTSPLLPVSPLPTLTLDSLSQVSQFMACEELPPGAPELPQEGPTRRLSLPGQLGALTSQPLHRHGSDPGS
Sequence of recombinant human Estrogen Receptor alpha ligand binding domain (ER alpha-LBD (GST)) (P03372 307-554): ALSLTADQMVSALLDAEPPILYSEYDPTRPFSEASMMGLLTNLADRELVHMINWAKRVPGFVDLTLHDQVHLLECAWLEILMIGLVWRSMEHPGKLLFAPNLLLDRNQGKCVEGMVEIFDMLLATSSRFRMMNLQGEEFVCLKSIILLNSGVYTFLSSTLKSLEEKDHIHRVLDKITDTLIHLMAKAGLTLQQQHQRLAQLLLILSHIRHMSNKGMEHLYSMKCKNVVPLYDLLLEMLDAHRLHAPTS
Sequence of Estrogen Receptor (ERα) in MCF-7 cells (P03372 whole entry): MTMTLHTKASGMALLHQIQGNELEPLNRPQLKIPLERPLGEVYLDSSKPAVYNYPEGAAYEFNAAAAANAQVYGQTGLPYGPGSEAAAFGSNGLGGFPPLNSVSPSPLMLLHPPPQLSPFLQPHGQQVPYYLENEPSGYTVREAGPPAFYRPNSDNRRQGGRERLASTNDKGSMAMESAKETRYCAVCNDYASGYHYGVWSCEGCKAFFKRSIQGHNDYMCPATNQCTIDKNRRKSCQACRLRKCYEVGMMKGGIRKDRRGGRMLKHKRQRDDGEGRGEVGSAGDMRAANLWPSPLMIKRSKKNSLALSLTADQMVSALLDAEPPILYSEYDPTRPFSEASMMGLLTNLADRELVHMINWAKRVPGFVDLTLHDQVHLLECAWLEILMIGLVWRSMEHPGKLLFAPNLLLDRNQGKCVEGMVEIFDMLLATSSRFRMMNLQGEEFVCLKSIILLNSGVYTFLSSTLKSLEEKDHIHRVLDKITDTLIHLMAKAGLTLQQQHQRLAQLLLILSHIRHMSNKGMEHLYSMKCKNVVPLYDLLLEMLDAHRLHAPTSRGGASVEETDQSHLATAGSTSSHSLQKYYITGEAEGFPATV

Structure (SMILES) | IC50 [1] [nM] | logD [2] | Human plasma protein binding (% free) [3] [% free] | IC50 (hERG potassium channel) [nM] | IC50 [4] [nM] | solubility at 24 h [5, 6] [µM] | LogD pH 7.4 ([2]; pH 7.4) | solubility at 24 h ([5]; 25° C.) [µM] | % downregulation (in brackets) [1] [%]
Cc1c(OCCN(C)CCCF)ncc(F)c1[C@@H]1c2[nH]c3ccccc3c2C[C@@H](C)N1C(C)CC(=O)O (single isomer, unassigned) [Example 158] | 1 | 1.8 | 21 | > 40000 | 1.5 | > 1000 |  |  | 
Cc1c(OCCN(C)CCCF)ncc(F)c1[C@@H]1c2[nH]c3ccccc3c2C[C@@H](C)N1C(C)CC(=O)O (single isomer, unassigned) [Example 159] | 0.18 |  | 13 | > 40000 | 0.9 |  | 1.7 | >1000 | 
C[C@@H]1Cc2c([nH]c3ccccc23)[C@@H](c2cccc(OCCNCCCF)c2Cl)N1CC(F)(F)F [Example 25, N-(2-(2-chloro-3-((1R,3R)-3-methyl-2-(2,2,2-trifluoroethyl)-2,3,4,9-tetrahydro-1H-pyrido[3,4-b]indol-1-yl)phenoxy)ethyl)-3-fluoropropan-1-amine] | 0.25 | 4.3 | 0.080 | 5200 | 0.88 | 19 (≈ 9.46 µg/mL) |  |  | 
COc1ccc(OCCNCCCF)c(C)c1[C@@H]1c2[nH]c3ccccc3c2C[C@@H](C)N1CC(F)(F)F [Example 26, 3-fluoro-N-(2-(4-methoxy-2-methyl-3-((1R,3R)-3-methyl-2-(2,2,2-trifluoroethyl)-2,3,4,9-tetrahydro-1H-pyrido[3,4-b]indol-1-yl)phenoxy)ethyl)propan-1-amine] | 0.16 | 4.6 | 0.22 | 4100 | 0.85 | 8 (≈ 4.06 µg/mL) |  |  | 
C[C@@H]1Cc2c([nH]c3ccccc23)[C@@H](c2cc(OCCNCCCF)ncc2F)N1CC(F)(F)F [Example 39, 3-fluoroN-(2-((5-fluoro-4-((1R,3R)-3-methyl-2-(2,2,2-trifluoroethyl)-2,3,4,9-tetrahydro-1H-pyrido[3,4-b]indol-1-yl)pyridin-2-yl)oxy)ethyl)propan-1-amine] | 0.26 | 3.6 |  | 3900 | 1.4 | 259 (≈ 125 µg/mL) |  |  | 
COc1cnc(NCCNCCCF)cc1[C@@H]1c2[nH]c3ccccc3c2C[C@@H](C)N1CC(F)(F)F [Example 42] | 1.9 | 2.9 |  | 7100 | 3.7 | 349 (≈ 172 µg/mL) |  |  | 
COc1ccc(O[C@@H](C)CNCCCF)cc1[C@@H]1c2[nH]c3ccccc3c2C[C@@H](C)N1CC(F)(F)CO [Example 48, 2,2-difluoro-3-((1R,3R)-1-(5-(((S)-1-((3-fluoropropyl)amino)propan-2-yl)oxy)-2-methoxyphenyl)-3-methyl-1,3,4,9-tetrahydro-2H-pyrido[3,4-b]indol-2-yl)propan-1-ol] | 13 | 2.8 |  | 2700 | 4.4 | 307 (≈ 160 µg/mL) |  |  | 
C[C@@H]1Cc2c([nH]c3ccccc23)[C@@H](c2nccc(OCCNCCCF)c2Cl)N1CC(F)(F)F [Example 93, N-(2-((3-chloro-2-((1S,3R)-3-methyl-2-(2,2,2-trifluoroethyl)-2,3,4,9-tetrahydro-1H-pyrido[3,4-b]indol-1-yl)pyridin-4-yl)oxy)ethyl)-3-fluoropropan-1-amine] |  | 4.3 | 0.34 | 6600 |  | 0.5 (≈ 0.249 µg/mL) |  |  | 
C[C@@H]1Cc2c([nH]c3ccccc23)[C@@H](c2nccc(OCCNCCCF)c2F)N1CC(F)F [Example 98, N-(2-((2-((1S,3R)-2-(2,2-difluoroethyl)-3-methyl-2,3,4,9-tetrahydro-1H-pyrido[3,4-b]indol-1-yl)-3-fluoropyridin-4-yl)oxy)ethyl)-3-fluoropropan-1-amine] | 1.2 | 2.3 |  | > 32000 | 1.9 | 594 (≈ 276 µg/mL) |  |  | 
C[C@@H]1Cc2c([nH]c3ccccc23)[C@@H](c2nccc(OCCNCCCF)c2F)N1CC1(F)CC1 [Example 99, 3-fluoro-N-(2-((3-fluoro-2-((1S,3R)-2-((1-fluorocyclopropyl)methyl)-3-methyl-2,3,4,9-tetrahydro-1H-pyrido[3,4-b]indol-1-yl)pyridin-4-yl)oxy)ethyl)propan-1-amine] | 3.8 | 2.1 |  | 20000 | 3.4 | 285 (≈ 135 µg/mL) |  |  | 
C[C@@H]1Cc2c([nH]c3ccccc23)[C@@H](c2nccc(OCCNCCCF)c2F)N1CC1(F)COC1 [Example 100, 3-fluoro-N-(2-((3-fluoro-2-((1S,3R)-2-((3-fluorooxetan-3-yl)methyl)-3-methyl-2,3,4,9-tetrahydro-1H-pyrido[3,4-b]indol-1-yl)pyridin-4-yl)oxy)ethyl)propan-1-amine] | 11 | 2.5 |  | 19000 | 5.2 | > 1000 |  |  | 
Cc1c([C@@H]2c3[nH]c4ccccc4c3C[C@@H](C)N2CC(F)(F)F)ccnc1OCCNCCCF [Example 106, 3-fluoro-N-(2-((3-methyl-4-((1R,3R)-3-methyl-2-(2,2,2-trifluoroethyl)-2,3,4,9-tetrahydro-1H-pyrido[3,4-b]indol-1-yl)pyridin-2-yl)oxy)ethyl)propan-1-amine] | 0.095 | 3.9 | 0.34 |  | 0.92 | 264 (≈ 126 µg/mL) |  |  | 
C[C@@H]1Cc2c([nH]c3ccc(F)cc23)[C@@H](c2c(F)cnc(OCCNCCCF)c2F)N1CC1(F)CC1 [Example 109, N-(2-((3,5-difluoro-4-((1R,3R)-6-fluoro-2-((1-fluorocyclopropyl)methyl)-3-methyl-2,3,4,9-tetrahydro-1H-pyrido[3,4-b]indol-1-yl)pyridin-2-yl)oxy)ethyl)-3-fluoropropan-1-amine] | 0.41 | > 3.6 | 1.9 |  | 1.2 | 176 (≈ 89.5 µg/mL) |  |  | 
Cc1c(OCCNCCCF)ncnc1[C@@H]1c2[nH]c3ccccc3c2C[C@@H](C)N1CC(F)(F)CO [Example 115, 2,2-difluoro-3-((1S,3R)-1-(6-(2-((3-fluoropropyl)amino)ethoxy)-5-methylpyrimidin-4-yl)-3-methyl-1,3,4,9-tetrahydro-2H-pyrido[3,4-b]indol-2-yl)propan-1-ol] | 0.31 | 2.1 | 11 |  | 1 | 983 (≈ 483 µg/mL) |  |  | 
Cc1c(OCCNCCCF)ccc(F)c1[C@@H]1c2[nH]c3ccccc3c2C[C@@H](C)N1CC(F)(F)C(=O)O [Example 118, 2,2-difluoro-3-((1R,3R)-1-(6-fluoro-3-(2-((3-fluoropropyl)amino)ethoxy)-2-methylphenyl)-3-methyl-1,3,4,9-tetrahydro-2H-pyrido[3,4-b]indol-2-yl)propanoic acid] | 5.5 | 1.8 | 8.4 |  | 1.2 | 111 (≈ 57.9 µg/mL) |  |  | 
Cc1c(OCCNCCCF)ccc(F)c1[C@@H]1c2[nH]c3ccccc3c2CC(C)(C)N1C[C@H](C)C(=O)O [Example 134, (S)-3-((R)-1-(6-fluoro-3-(2-((3-fluoropropyl)amino)ethoxy)-2-methylphenyl)-3,3-dimethyl-1,3,4,9-tetrahydro-2H-pyrido[3,4-b]indol-2-yl)-2-methylpropanoic acid] | 1.6 | 0.6 | 36 |  | 5.8 | > 1000 |  |  | 85
Cc1c(NCCNCCCF)ccc(F)c1[C@@H]1c2[nH]c3ccccc3c2C[C@@H](C)N1C[C@H](C)C(=O)O [Example 135, (S)-3-((1R,3R)-1-(6-fluoro-3-((2-((3-fluoropropyl)amino)ethyl)amino)-2-methylphenyl)-3-methyl-1,3,4,9-tetrahydro-2H-pyrido[3,4-b]indol-2-yl)-2-methylpropanoic acid] | 16 | 0.5 | 32 |  | 160 | > 1000 |  |  | 
Cc1c(N(C)CCNCCCF)ccc(F)c1[C@@H]1c2[nH]c3ccccc3c2C[C@@H](C)N1C[C@H](C)C(=O)O [Example 136, (S)-3-((1R,3R)-1-(6-fluoro-3-((2-((3-fluoropropyl)amino)ethyl)(methyl)amino)-2-methylphenyl)-3-methyl-1,3,4,9-tetrahydro-2H-pyrido[3,4-b]indol-2-yl)-2-methylpropanoic acid] | > 300 | 1.1 | 2.1 |  | 2 | 328 (≈ 168 µg/mL) |  |  | 
C[C@@H]1Cc2c([nH]c3ccccc23)[C@@H](c2c(F)ccc(OCCN(C)CCCF)c2C(F)F)N1C[C@H](C)C(=O)O [Example 148, (S)-3-((1R,3R)-1-(2-(difluoromethyl)-6-fluoro-3-(2-((3-fluoropropyl)(methyl)amino)ethoxy)phenyl)-3-methyl-1,3,4,9-tetrahydro-2H-pyrido[3,4-b]indol-2-yl)-2-methylpropanoic acid] | 0.42 | 1.5 | 10 |  | 1.1 | 788 (≈ 433 µg/mL) |  |  | 68
Cc1c(OCCN(C)CCCF)ccc(F)c1[C@@H]1c2[nH]c3ccccc3c2C[C@@H](C)N1CCC(=O)O [Example 163, 3-((1R,3R)-1-(6-fluoro-3-(2-((3-fluoropropyl)(methyl)amino)ethoxy)-2-methylphenyl)-3-methyl-1,3,4,9-tetrahydro-2H-pyrido[3,4-b]indol-2-yl)propanoic acid] | 1.2 | 0.7 | 49 |  | 3.3 | > 1000 |  |  | 
